# Activity calls are given as the source filed them.
# Tests used:
# HEK293 [1] = experiment: TNF Induced NF-kB Luciferase in 293-NF-kB-Luc Stable Cells. [Related pubchem assays: 1266, 1299, 1269, 1373, 1292, 1290, 1302, 1371, 1283, 1270, 1295, 1271, 1375, 1294, 1374, 1281, 1293, 1291, 1289, 1280, 465, 1368, 1364, 1282, 1372, 1365, 1369, 1370, 1367, 1366 ]; format: functional, cell-based; settings: Homo sapiens
# HEK293 [2] = experiment: Cytotoxicity assay in HEK293 cells. [Related pubchem assays (depositor defined):AID1266, AID1269, AID1270, AID1271, AID1280, AID1281, AID1282, AID1283, AID1287, AID1289, AID1290, AID1291, AID1292, AID1293, AID1294, AID1295, AID1299, AID1302, AID1364, AID1365, AID1366, AID1367, AID1369, AID1370, AID1371, AID1372, AID1373, AID1374, AID1375, AID1384 …; format: functional, cell-based; settings: Homo sapiens
# HEK293 [3] = experiment: PMA/Ionomycin-induced IL-8 production in HEK293- NF-kB-Luc stable cells. [Related pubchem assays: 1299, 1295, 1375, 1287, 1281, 1293, 1291, 1289, 1280, 465, 1364, 1282, 1372, 1365, 1367, 1366, 1266, 1269, 1373, 1292, 1290, 1302, 1371, 1283, 1271, 1294, 1374, 1368, 1369 ]; format: functional, cell-based; settings: Homo sapiens
# HEK293 [4] = experiment: PMA/Ionomycin induced NF-kB luciferase assay in 293- NF-kB-Luc stable cells. [Related pubchem assays: 1299, 1270, 1295, 1375, 1287, 1281, 1293, 1291, 1289, 1280, 465, 1364, 1282, 1372, 1365, 1370, 1367, 1366, 1269, 1373, 1292, 1290, 1302, 1371, 1283, 1271, 1294, 1374, 1368, 1369 ]; format: functional, cell-based; settings: Homo sapiens
# [5] = molecular target: T1, Luciferin 4-monooxygenase (Photinus pyralis, UniProt P08659); experiment: In vitro luciferase assay using purified luciferase. [Related pubchem assays: 1299, 1270, 1295, 1375, 1287, 1281, 1293, 1291, 1289, 1280, 465, 1364, 1282, 1372, 1365, 1370, 1367, 1366, 1266, 1373, 1292, 1290, 1302, 1371, 1283, 1271, 1294, 1374, 1368, 1369 ]
# [6] = molecular target: T2, Tyrosine-protein phosphatase non-receptor type 7 (Homo sapiens, UniProt P35236); format: functional
# T2 sequence (P35236 whole entry): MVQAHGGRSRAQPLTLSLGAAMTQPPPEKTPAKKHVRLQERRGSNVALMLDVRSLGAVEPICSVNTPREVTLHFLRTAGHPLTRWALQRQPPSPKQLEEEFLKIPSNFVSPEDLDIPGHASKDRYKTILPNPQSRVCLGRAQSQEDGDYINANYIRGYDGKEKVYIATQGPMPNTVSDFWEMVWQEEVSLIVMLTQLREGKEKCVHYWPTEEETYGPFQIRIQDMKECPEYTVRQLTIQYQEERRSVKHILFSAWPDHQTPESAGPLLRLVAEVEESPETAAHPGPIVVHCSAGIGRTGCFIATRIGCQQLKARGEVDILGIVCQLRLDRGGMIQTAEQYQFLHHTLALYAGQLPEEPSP
# [7] = molecular target: T3, Dual specificity protein phosphatase 6 (Rattus norvegicus, UniProt Q64346); format: functional
# T3 sequence (Q64346 whole entry): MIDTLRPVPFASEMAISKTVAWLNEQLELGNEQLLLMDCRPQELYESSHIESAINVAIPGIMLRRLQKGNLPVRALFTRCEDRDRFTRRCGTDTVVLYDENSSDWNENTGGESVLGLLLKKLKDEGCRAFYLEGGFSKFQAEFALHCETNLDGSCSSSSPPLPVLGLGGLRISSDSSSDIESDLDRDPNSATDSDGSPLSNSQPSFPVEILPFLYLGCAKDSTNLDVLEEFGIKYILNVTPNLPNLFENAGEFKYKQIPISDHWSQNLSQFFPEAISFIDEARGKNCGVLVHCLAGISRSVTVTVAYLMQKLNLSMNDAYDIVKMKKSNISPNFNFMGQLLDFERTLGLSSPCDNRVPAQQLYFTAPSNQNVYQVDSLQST
# [8] = molecular target: Glyceraldehyde-3-phosphate dehydrogenase (Homo sapiens, UniProt P04406)
# [9] = molecular target: T3, Dual specificity protein phosphatase 6
# Streptococcus = experiment: Luminescence Microorganism-Based Dose Response Follow up to Identify Compounds Cytotoxic to Streptococcus. [Related pubchem assays: 1677 (Project Summary), 1915, 1914, 1902 (Retest at Dose), 1900 (Counter Screen), 1662 (Primary HTS)]; format: functional, organism-based
# [10] = A Cell Based Assay for the Identification of Probe candidate Compounds with Anti- Venezuelan Equine Encephalitis virus. [Related pubchem assays: 2409, 2419, 1621, 2238, 2405, 2024, 2065, 2402, 2414, 1635, 1650, 2244 ]; format: functional
# Vero [11] = experiment: cytotoxicity of synthesized analogs in Vero 76, SAR follow-up, cytotoxicity control for West Nile virus antiviral project, Vero 76 cells (AID 2414); format: functional; settings: Chlorocebus sabaeus
# Vero [12] = experiment: cytotoxicity of synthesized analogs in Vero cells, SAR follow-up, cytotoxicity control for West Nile virus antiviral project, cell-based, set II (AID 2402); format: functional; settings: Chlorocebus sabaeus
# Vero [13] = experiment: Vero E6 cell cytotoxicity, SAR follow-up, cytotoxicity control for West Nile virus antiviral project, synthesized analogs (AID 2244); format: functional; settings: Chlorocebus sabaeus
# [14] = molecular target: Lysosomal acid glucosylceramidase (Homo sapiens, UniProt P04062); experiment: Dose response cell-based high throughput screening assay to identify enhancers of beta-glucosidase activity. [Related pubchem assays: 784 ]; format: functional
# [15] = molecular target: Mitogen-activated protein kinase 10 (Homo sapiens, UniProt P53779); experiment: Dose response biochemical screening assay for inhibitors of c-Jun N-Terminal Kinase 3 (JNK3). [Related pubchem assays: 746 ]
# cells = format: functional, cell-based
# [16] = cytotoxicity in HEK-293T cells, dose response, cytotoxicity control for TCR NF-kB inhibitor project, luminescence, T-cell screen hits (AID 489026); format: functional, cell-based;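 further: cells exposed to compound about 14 hours before the viability readout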
# [17] = molecular target: T1, Luciferin 4-monooxygenase; experiment: Counter Screen for Luciferase-based Assay Positives. [Related pubchem assays: 620, 618, 411 ]
# HT-1080 = experiment: cytotoxicity in HT1080 fibrosarcoma cells, cell-based, fluorescence readout (AID 620); format: functional; settings: Homo sapiens
# [18] = inhibitors of firefly luciferase expression or activity, dose response, H4 neuroglioma cells, luminescence (AID 1990); format: functional, cell-based
# [19] = Luminescence Cell-Based Dose Confirmation HTS to Identify Inhibitors of Platelet Dense Granule Release. [Related pubchem assays: 1663 (Primary HTS), 1678 (Summary of Project)]; format: functional
# [20] = luciferase reporter signal reduction – luminescence, H4-C neuroglioblastoma cells, dose response (AID 2458); format: functional, cell-based;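 further: H4 neuroglioblastoma cells stably carrying a luciferase reporter gene fusion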
# [21] = inhibitors of SNCA 5'UTR-driven reporter translation, confirmation, H4 neuroglioma cells, luminescence (AID 1988); format: functional, cell-based
# [22] = Luminescence Cell-Based Dose Response HTS to Identify Inhibitors of 5'UTR Stem-Loop Driven Prion Protein mRNA Translation in H4 Neuroglioblastoma Cells. [Related pubchem assays: 1827 (Project Summary), 1813 (Primary HTS)]; format: functional
# [23] = inhibitors of SNCA 5'UTR-driven translation, confirmation, luminescence, H4 neuroglioblastoma cells, dose confirmation (AID 2454); format: functional, cell-based;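 further: H4 neuroglioblastoma cells carrying an alpha-synuclein 5'UTR luciferase reporter; potency for inhibition of the luciferase signal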
# [24] = Luminescence-based counterscreen assay for KLF5 inhibitors: dose response cell-based high throughput screening assay to identify cytotoxic compounds using the IEC-6 intestinal epithelial cell line. [Related pubchem assays: 1700 (Primary screen.), 1834 (Confirmation screen.), 1858 (Summary AID.), 1905 (Counterscreen.)]; format: functional
# [25] = molecular target: Dual specificity tyrosine-phosphorylation-regulated kinase 1A (Rattus norvegicus, UniProt Q63470); format: biochemical, Homo sapiens
# [26] = molecular target: T1, Luciferin 4-monooxygenase; experiment: firefly luciferase enzyme inhibitors, dose response, biochemical, luminescence (AID 1891)
# Insulin-degrading enzyme = molecular target: T4, Insulin-degrading enzyme (Homo sapiens, UniProt P14735); experiment: Dose Response: Fluorescence polarization-based cell-based high throughput dose response assay for inhibitors of insulin-degrading enzyme (IDE). [Related pubchem assays: 434962 (Primary screen (IDE inhibitors in singlicate)), 449730 (Counterscreen (Cytotoxicity in triplicate)), 435028 (Confirmation (IDE inhibitors in triplicate)), 434984 (Summary …; format: functional
# T4 sequence (P14735 whole entry): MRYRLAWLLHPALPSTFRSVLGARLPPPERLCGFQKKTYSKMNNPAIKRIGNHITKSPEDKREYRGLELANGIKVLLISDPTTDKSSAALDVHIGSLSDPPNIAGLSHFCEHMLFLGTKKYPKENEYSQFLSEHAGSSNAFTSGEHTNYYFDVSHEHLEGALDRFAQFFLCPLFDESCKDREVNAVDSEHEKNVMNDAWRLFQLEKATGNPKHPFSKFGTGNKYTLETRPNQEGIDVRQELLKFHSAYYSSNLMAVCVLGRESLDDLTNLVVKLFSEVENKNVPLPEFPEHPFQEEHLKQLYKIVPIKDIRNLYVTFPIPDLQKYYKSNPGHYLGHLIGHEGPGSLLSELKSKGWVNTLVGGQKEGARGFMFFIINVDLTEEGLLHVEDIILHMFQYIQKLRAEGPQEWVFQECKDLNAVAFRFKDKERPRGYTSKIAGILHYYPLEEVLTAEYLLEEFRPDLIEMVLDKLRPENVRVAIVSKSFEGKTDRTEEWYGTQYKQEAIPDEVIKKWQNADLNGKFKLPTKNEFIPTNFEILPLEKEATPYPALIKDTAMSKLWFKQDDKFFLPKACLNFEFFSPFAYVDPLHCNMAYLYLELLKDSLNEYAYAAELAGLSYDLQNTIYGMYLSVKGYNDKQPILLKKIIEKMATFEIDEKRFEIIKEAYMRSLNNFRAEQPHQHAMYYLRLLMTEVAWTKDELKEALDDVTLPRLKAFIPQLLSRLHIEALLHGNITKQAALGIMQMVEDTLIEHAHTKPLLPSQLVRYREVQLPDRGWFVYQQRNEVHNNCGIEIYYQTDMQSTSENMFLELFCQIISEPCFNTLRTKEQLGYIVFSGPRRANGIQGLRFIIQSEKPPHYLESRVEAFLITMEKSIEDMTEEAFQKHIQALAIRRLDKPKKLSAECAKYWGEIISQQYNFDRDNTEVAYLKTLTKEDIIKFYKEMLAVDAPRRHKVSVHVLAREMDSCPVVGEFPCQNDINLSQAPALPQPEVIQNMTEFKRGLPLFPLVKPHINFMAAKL
# [27] = enhancers of respiration in Yfh1-depleted yeast, dose response, Friedreich's ataxia, plus single-dose screen (AID 1465); format: functional;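 further: yeast depleted of Yfh1p frataxin homolog grown on glycerol needing respiration; WST-1 tetrazolium dye reduction as measure of cellular dehydrogenase metabolic activity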
# Troponin, cardiac muscle = Troponin, cardiac muscle (Homo sapiens, UniProt P19429+P45379+P63316); experiment: Fluorescence-based biochemical high throughput dose response assay for activators of the calcium sensitivity of cardiac Regulated Thin Filaments (RTF). [Related pubchem assays (depositor defined):AID493008, AID493018, AID504382, AID504383]; format: protein-complex assay
# [28] = Counterscreen for IDE inhibitors: Luminescence-based cell-based high throughput dose response assay to identify compounds that are cytotoxic to HEK cells. [Related pubchem assays: 434962 (Primary screen (IDE inhibitors in singlicate)), 449730 (Counterscreen (Cytotoxicity in triplicate)), 435028 (Confirmation (IDE inhibitors in triplicate)) …; format: functional; settings: HEK293
# T1 sequence (P08659 whole entry): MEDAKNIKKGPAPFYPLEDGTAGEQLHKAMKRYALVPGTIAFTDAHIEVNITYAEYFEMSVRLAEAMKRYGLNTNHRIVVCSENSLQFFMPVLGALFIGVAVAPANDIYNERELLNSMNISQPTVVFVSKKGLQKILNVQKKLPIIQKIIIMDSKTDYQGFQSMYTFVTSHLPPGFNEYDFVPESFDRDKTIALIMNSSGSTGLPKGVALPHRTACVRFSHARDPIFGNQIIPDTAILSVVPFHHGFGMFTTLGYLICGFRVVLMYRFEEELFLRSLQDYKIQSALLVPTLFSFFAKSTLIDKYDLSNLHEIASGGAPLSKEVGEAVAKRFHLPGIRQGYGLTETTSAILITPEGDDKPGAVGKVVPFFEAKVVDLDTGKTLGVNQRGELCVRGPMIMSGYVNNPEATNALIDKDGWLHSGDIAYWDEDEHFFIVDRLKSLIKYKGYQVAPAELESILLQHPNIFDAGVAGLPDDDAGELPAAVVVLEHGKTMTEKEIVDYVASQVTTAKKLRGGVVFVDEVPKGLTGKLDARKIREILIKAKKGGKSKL
# Chain of Lysosomal acid glucosylceramidase (P04062 whole entry): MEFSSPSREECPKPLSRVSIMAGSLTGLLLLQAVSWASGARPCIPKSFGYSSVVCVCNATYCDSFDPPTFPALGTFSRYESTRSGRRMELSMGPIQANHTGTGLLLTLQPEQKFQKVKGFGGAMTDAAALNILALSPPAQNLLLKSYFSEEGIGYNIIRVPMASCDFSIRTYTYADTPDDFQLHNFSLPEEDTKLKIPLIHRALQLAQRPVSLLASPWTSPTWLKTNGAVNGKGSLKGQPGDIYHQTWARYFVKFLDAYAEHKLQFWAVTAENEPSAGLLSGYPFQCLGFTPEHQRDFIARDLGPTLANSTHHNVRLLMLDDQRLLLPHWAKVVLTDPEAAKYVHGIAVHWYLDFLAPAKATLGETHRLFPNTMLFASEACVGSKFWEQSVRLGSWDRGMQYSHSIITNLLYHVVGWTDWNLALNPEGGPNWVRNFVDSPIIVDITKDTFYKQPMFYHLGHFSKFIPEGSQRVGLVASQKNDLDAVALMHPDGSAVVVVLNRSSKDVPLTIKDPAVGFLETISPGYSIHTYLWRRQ
# Chain of Glyceraldehyde-3-phosphate dehydrogenase (P04406 whole entry): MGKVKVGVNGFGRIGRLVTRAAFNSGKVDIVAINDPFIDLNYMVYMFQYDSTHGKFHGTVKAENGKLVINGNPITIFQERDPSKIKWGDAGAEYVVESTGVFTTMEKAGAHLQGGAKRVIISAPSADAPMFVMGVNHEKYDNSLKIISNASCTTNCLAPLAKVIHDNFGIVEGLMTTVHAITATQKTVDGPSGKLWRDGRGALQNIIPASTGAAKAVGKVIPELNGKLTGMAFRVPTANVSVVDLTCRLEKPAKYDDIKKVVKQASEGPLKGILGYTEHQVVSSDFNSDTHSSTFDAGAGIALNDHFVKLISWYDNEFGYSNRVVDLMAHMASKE
# Chain of Mitogen-activated protein kinase 10 (P53779 whole entry): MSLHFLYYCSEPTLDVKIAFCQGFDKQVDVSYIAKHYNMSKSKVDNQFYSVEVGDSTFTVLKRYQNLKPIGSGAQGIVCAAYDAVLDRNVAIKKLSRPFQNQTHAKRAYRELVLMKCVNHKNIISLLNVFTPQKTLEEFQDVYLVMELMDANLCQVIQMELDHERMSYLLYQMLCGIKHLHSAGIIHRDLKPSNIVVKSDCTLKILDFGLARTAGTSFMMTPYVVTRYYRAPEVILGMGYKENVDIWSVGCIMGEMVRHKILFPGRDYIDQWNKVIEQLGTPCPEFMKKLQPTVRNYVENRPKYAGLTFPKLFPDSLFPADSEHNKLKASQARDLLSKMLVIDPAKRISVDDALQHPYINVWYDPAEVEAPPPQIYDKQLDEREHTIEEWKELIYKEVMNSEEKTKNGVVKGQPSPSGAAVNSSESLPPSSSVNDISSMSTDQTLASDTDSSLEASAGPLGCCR
smiles,measurement,setting,value
O=C(NC1CCCCCC1)c1ccc([N+](=O)[O-])o1,EC50,HEK293 [1],> 8 µM (not active)
same,EC50,HEK293 [2],> 8 µM (inactive)
same,EC50,HEK293 [3],4.02 µM (not active)
same,EC50,HEK293 [4],3.29 µM (active)
same,EC50,[5],> 8 µM (not active)
O=C(O)C1Nc2c(F)cccc2C2C=CCC12 (stereo not drawn),IC50,[6],5.4 µM (active)
same,IC50,[7],17.2 µM (active)
same,IC50,[8],> 100 µM (not active)
same,IC50,[9],19.8 µM (active)
O=C(CSc1cccs1)N1c2ccccc2Sc2ccccc21,EC50,Streptococcus,> 500 µM (not active)
COc1ccc(-c2csc(N(C(=O)c3ccccc3Cl)C(C)C)n2)cc1,IC50,[10],> 66.6 µM (active)
same,CC50,Vero [11],35.5 µM (active)
same,CC50,Vero [12],13.5 µM (active)
same,CC50,Vero [13],22.4 µM (active)
COc1ccc(CNC(=O)CCCNS(=O)(=O)c2cccc3nonc23)cc1,EC50,[14],> 50 µM (not active)
CCN1C=CC(=C2C(=O)c3ccccc3C2=O)C=C1,IC50,[15],43.5 µM (not active)
same,EC50,cells,0.317 µM (active)
same,IC50,[16],> 80 µM (inactive)
same,EC50,[17],10.1 µM (active)
same,EC50,HT-1080,> 50 µM (not active)
same,EC50,[18],< 0.1 µM (active)
same,EC50,[19],6.3 µM (active)
same,EC50,[20],0.324 µM (active)
same,EC50,[21],< 0.1 µM (active)
same,EC50,[22],< 0.1 µM (active)
same,EC50,[23],0.247 µM (active)
same,IC50,[24],15 µM (not active)
same,AC50,[25],13.6 µM (active)
same,EC50,[26],1.85 µM (active)
CCOC(=O)/C(=C/C1=CC(=C/N(C)C)/C(=O)O1)C(C)=O,IC50,Insulin-degrading enzyme,22.1 µM (not active)
same,EC50,[27],> 100 µM (active)
same,EC50,"Troponin, cardiac muscle",7.74 µM (active)
same,IC50,[28],> 55.7 µM (not active)

# Reference: ChEMBL document CHEMBL1201862, “PubChem BioAssay data set” (2004)
